≈ marks a conversion by molar mass, not a printed value. Like-named read-outs stand apart in the source and are kept apart here.
Assays:
[1] = test system: Staphylococcus aureus M133; test: Minimum growth inhibition concentration, standard serial dilution method; type: cell-based; conditions: Staphylococcus aureus M133 (methicillin-resistant); 10^6 CFU/ml, 35° C., 18 to 20 hours
Experimental: (§1) In this Test Example, the antibacterial activity of some exemplary compounds indicated below and chosen from amongst the compounds of the general formula (I) according to this invention is illustrated by determining their minimum growth inhibition concentrations to various bacteria as measured by a standard serial dilution method. In this case, the determination was carried out by inoculating 10^6 CFU/ml of test bacteria to a culture medium N for sensitive disc (as prepared by Nissui Pharmaceutical Co., Ltd.), incubating the bacteria at 35° C. for 18 to 20 hours, and then evaluating the bacterial growth. Test compounds used are as follows:
(§2) The measured values of the minimum growth inhibition concentrations ([…]) of the above-mentioned compounds A, B and C are shown in Table 1.
(§3) Note: (*) means methicillinresistant Staphylococus aureus.

[2] = test system: Staphylococcus aureus M126; test: as above; type: cell-based; conditions: Staphylococcus aureus M126 (methicillin-resistant); 10^6 CFU/ml, 35° C., 18 to 20 hours
Experimental: as §1, §2, §3

[3] = test system: Escherichia coli NIHJ JC-2; test: as above; type: cell-based
Experimental: as §1, §2

[4] = test system: Klebsiella pneumoniae PCI602; test: as above; type: cell-based
Experimental: as §1, §2

[5] = test system: Proteus vulgaris GN76; test: as above; type: cell-based
Experimental: as §1, §2

[6] = test system: Marganella morganii 1510/S-1; test: as above; type: cell-based; conditions: read-out: Minimum growth inhibition concentration
Experimental: as §1, §2

[7] = test system: Staphylococcus aureus 209P JC-1; test: as above; type: cell-based; conditions: read-out: Minimum growth inhibition concentration
Experimental: as §1, §2

[8] = test system: Staphylococcus epidermidis ATCC14990; test: as above; type: cell-based; conditions: 10^6 CFU/ml, 35° C., 18 to 20 hours
Experimental: as §1, §2

[9] = Concentration in blood upon subcutaneous injection in mice (HPLC, serum); type: in vivo, mice of ICR strain; conditions: sc, male ICR mice, 0.5 mg per mouse; for half-life / AUC: Gauss-Newton method; for AUC: read-out: AUC (Area under the plasma concentration-time curve); for Cmax: HPLC, read-out: Maximum concentration in blood
Experimental: Test compounds used are as follows:
The test procedure used was as follows. That is, 5 mice of ICR strain (male, 4-weeks-aged, 1 mouse in each group/at the time of collection of blood samples) were used as test animal and 0.5 mg of each test compound dissolved in 0.2 ml of a purified water sterilized for injection was subcutaneously injected to each mouse. Blood samples were collected from each mouse 5 minutes, 15 minutes, 30 minutes, 1 hour and 2 hours after the aministration of test compound. Each blood sample as collected was post-treated in a usual manner and the concentration of the cephem compound in the serum was then quantitatively determined by the use of HPLC (High Performance Liquid Chromatography). A half-life value and AUC which were pharmacokinetic parameters were calculated by the Gauss-Newton method.
AUC means "Area under the plasma concentration-time curve".

[10] = Toxicity (LD50) on intravenous administration in mice; conditions: mouse, in vivo
Experimental: The cephalosporin derivative of the general formula (I) according to this invention can safely be administered to mammals because it is of low toxicity. […] The new cephalosporin derivative of this invention may be administered orally at a unit dose of 100 mg to 250 mg to an adult human patient four times a day, for a guideline. However, precise dosage of the new cephalosporin derivative of this invention is determinable through preliminary routine experiments, depending on the body weight, ages, sex and other various parameters of patients as well as the nature of the bacterial infections to be treated, and so on.

[11] = Proteus vulgaris GN76, 10^6 CFU/ml, 35° C., 18 to 20 hours, read-out: Minimum growth inhibition concentration
[12] = Escherichia coli, NIHJJC2, read-out: Minimum growth inhibition concentration
[13] = Klebsiella pneumoniae, PCI602, read-out: Minimum growth inhibition concentration

| SMILES | MIC [1] [µg/mL] | MIC [2] [µg/mL] | MIC ([3]; NIHJJC2, Escherichia coli NIHJ JC-2, 10^6 CFU/ml, 35° C., 18 to 20 hours, read-out: Minimum growth inhibition concentration) [µg/mL] | MIC ([4]; Klebsiella pneumoniae PCI602, 10^6 CFU/ml, 35° C., 18 to 20 hours, read-out: Minimum growth inhibition concentration) [µg/mL] | MIC [5, 11] [µg/mL] | MIC [6] [µg/mL] | MIC [7] [µg/mL] | MIC [8] [µg/mL] | half-life [9] [min] | AUC [9] [ng·h/mL] | Cmax [9] [µg/mL] | MIC [3, 12] [µg/mL] | MIC [4, 13] [µg/mL] | LD50 [10] [mg/kg] | MIC ([5]; Proteus vulgaris, GN76, read-out: Minimum growth inhibition concentration) [µg/mL] |
| --- | --- | --- | --- | --- | --- | --- | --- | --- | --- | --- | --- | --- | --- | --- | --- |
| Nc1nc(/C(=N/O)C(=O)NC2C(=O)N3C(C(=O)O)=C(Sc4nc5ccccc5s4)CS[C@H]23)cs1 (stereo partly shown) [B, 7-[(Z)-2-(2-aminothiazol-4-yl)-2hydroxyiminoacetamido]-3-(benzothiazol-2-yl)thio-3-cephem-4-carboxylic acid] | 1.56 (≈ 2.92 µM) | 3.13 (≈ 5.85 µM) | 25 (≈ 46.8 µM) | 25 (≈ 46.8 µM) | 100 (≈ 187 µM) | 3.13 (≈ 5.85 µM) | 0.2 (≈ 0.374 µM) | 0.2 (≈ 0.374 µM) |  |  |  |  |  |  |  |
| Nc1nc(/C(=N/OCC(=O)O)C(=O)NC2C(=O)N3C(C(=O)O)=C(Sc4nc5ccccc5s4)CSC23)cs1 (stereo not shown) [Compound C, 7-[(Z)-2-(2-aminothiazol-4-yl)-2carboxymethoxyiminoacetamido]-3-(benzothiazol-2-yl)thio3-cephem-4-carboxylic acid] | 12.5 (≈ 21.1 µM) | 50 (≈ 84.4 µM) |  |  | 0.1 (≈ 0.169 µM) | 0.78 (≈ 1.32 µM) | 3.13 (≈ 5.28 µM) | 1.56 (≈ 2.63 µM) | 55.2 | 131000 | 80.8 | 3.13 (≈ 5.28 µM) | 3.13 (≈ 5.28 µM) |  |  |
| CO/N=C(\C(=O)NC1C(=O)N2C(C(=O)O)=C(Sc3nc4ccccc4s3)CS[C@H]12)c1csc(N)n1 (stereo partly shown) [Compound A, 7-[(Z)-2-(2-aminothiazol-4-yl)-2methoxyiminoacetamido]-3-(benzothiazol-2-yl)thio-3-cephem-4-carboxylic acid] | 3.13 (≈ 5.7 µM) | 6.25 (≈ 11.4 µM) |  |  |  | 0.78 (≈ 1.42 µM) | 0.39 (≈ 0.711 µM) | 0.2 (≈ 0.365 µM) | 42 | 62500 | 51.6 | 3.13 (≈ 5.7 µM) | 3.13 (≈ 5.7 µM) | 1000 to 1500 | 3.13 (≈ 5.7 µM) |

Reference: patent US5461044A, “Cephalosporin derivatives” (Meiji Seika Kaisha, Ltd., priority 1991, dated 1995)
